Activity calls are given as the source filed them. No cut-off for these calls is given here. Peptide text beside a SMILES is read from it.
Legend:
Disks large homolog 4 [1] = biological target: T1, Disks large homolog 4 (Homo sapiens, UniProt P78352); experiment: Inhibition of PSD-95 PDZ3 domain by competitive fluorescence polarization assay
Target sequence in this assay (P78352 whole entry, the tested form may be a part): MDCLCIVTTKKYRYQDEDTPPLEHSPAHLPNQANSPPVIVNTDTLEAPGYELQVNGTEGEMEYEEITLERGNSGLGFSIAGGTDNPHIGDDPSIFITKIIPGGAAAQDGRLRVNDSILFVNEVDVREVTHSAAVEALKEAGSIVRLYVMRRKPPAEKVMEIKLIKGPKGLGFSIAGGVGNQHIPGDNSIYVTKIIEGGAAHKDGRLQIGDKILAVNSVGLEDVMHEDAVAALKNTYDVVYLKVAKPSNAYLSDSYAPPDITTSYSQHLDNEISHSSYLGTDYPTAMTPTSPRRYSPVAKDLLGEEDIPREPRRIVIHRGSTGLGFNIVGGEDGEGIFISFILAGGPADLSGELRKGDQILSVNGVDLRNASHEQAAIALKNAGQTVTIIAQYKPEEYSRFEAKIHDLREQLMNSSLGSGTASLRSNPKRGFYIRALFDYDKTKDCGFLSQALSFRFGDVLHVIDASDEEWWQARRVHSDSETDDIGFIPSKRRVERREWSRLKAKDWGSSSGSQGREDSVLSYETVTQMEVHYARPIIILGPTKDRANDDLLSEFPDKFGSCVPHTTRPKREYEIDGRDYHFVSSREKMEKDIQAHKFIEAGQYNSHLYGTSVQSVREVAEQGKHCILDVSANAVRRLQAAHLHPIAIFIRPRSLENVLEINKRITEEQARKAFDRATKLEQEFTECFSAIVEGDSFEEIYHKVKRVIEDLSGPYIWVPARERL

Disks large homolog 4 [2] = biological target: T1, Disks large homolog 4; experiment: Inhibition of PSD-95 PDZ2 domain by competitive fluorescence polarization assay
Target sequence in this assay (P78352 whole entry, the tested form may be a part): as above

Disks large homolog 4 [3] = biological target: T1, Disks large homolog 4; experiment: Inhibition of PSD-95 PDZ2 domain-GluN2B interaction expressed in COS7 cells transfected with pGFP2-PDZ2 and pRluc-N2B at 500 uM by BRET assay; format: cell-based; details: COS-7
Target sequence in this assay (P78352 whole entry, looked up, the tested form may be a part): as the sequence (P78352 whole entry, the tested form may be a part) above

[4] = Stability in human plasma assessed as half life by ESI-LC/MS; format: ADME, cell-free
Disks large homolog 4 [5] = biological target: T1, Disks large homolog 4; experiment: Inhibition of PSD-95 PDZ2 domain-GluN2B interaction expressed in COS7 cells transfected with pGFP2-PDZ2 and pRluc-N2B at 50 to 1000 uM by BRET assay; format: cell-based; details: COS-7
Target sequence in this assay (P78352 whole entry, looked up, the tested form may be a part): as the sequence (P78352 whole entry, the tested form may be a part) above

Disks large homolog 4 [6] = biological target: T1, Disks large homolog 4; experiment: Inhibition of PSD-95 PDZ2 domain-GluN2B interaction expressed in COS7 cells transfected with pGFP2-PDZ2 and pRluc-N2B at 100 uM by BRET assay; format: cell-based; details: COS-7
Target sequence in this assay (P78352 whole entry, looked up, the tested form may be a part): as the sequence (P78352 whole entry, the tested form may be a part) above

Row | Ki (Disks large homolog 4 [1]; read-out: Ki) [µM] | Ki (Disks large homolog 4 [2]) [µM] | inhibition (Disks large homolog 4 [3]) | Molecule | other results
1 | > 400 | – | – | CC(C)[C@H](NC(=O)[C@H](CC(=O)O)NC(=O)[C@@H](NC(=O)[C@H](C)NCCC1CCCCC1)[C@@H](C)O)C(=O)O | –
2 | – | – | – | CC(C)[C@H](NC(=O)[C@H](CC(=O)O)NC(=O)[C@@H](NC(=O)[C@H](C)N)[C@@H](C)O)C(=O)O (H-ATDV-OH) | Ki (Disks large homolog 4 [1]): Not Active
3 | 95 | 9 | – | CC(C)[C@H](NC(=O)[C@H](C)NC(=O)[C@@H](NC(=O)[C@H](CCC(=O)O)NCCCc1c2ccccc2cc2ccccc12)[C@@H](C)O)C(=O)O | –
4 | > 400 | 110 | – | CC(C)[C@H](NC(=O)[C@H](C)NC(=O)[C@@H](NC(=O)[C@@H](N)CCC(N)=O)[C@@H](C)O)C(=O)O (H-QTAV-OH) | –
5 | – | – | inactive | CC(C)[C@H](NC(=O)[C@H](CC(=O)O)NC(=O)[C@@H](NC(=O)[C@H](CCC(=O)O)NCCC1CCCCC1)[C@@H](C)O)C(=O)O | Ki (Disks large homolog 4 [1]): Not Active
6 | – | 220 | – | CN[C@@H](CCC(=O)O)C(=O)N[C@H](C(=S)N[C@@H](C)C(=O)N[C@H](C(=O)O)C(C)C)[C@@H](C)O | half-life [4]: 9 h
7 | – | 0.63 | Active | CC(C)[C@H](NC(=O)[C@H](C)NC(=O)[C@@H](NC(=O)[C@H](CCC(=O)O)NCCC1CCCCC1)[C@@H](C)O)C(=O)O | half-life [4]: 0.483 h; inhibition (Disks large homolog 4 [5]): Dose-dependent effect
8 | – | 10.8 | – | CN[C@@H](CCC(=O)O)C(=O)N[C@H](C(=O)N[C@@H](C)C(=S)N[C@H](C(=O)O)C(C)C)[C@@H](C)O | half-life [4]: > 91.7 h
9 | 53 | 5 | – | CC(C)[C@H](NC(=O)[C@H](C)NC(=O)[C@@H](NC(=O)[C@H](CCC(=O)O)NCCCc1ccc2ccccc2c1)[C@@H](C)O)C(=O)O | –
10 | 76 | 33 | – | CC(C)[C@H](NC(=O)[C@H](C)NC(=O)[C@@H](NC(=O)[C@H](CCC(=O)O)NCCCCc1ccc2ccc3cccc4ccc1c2c34)[C@@H](C)O)C(=O)O | –
11 | – | – | Active | CC(C)[C@H](NC(=O)[C@H](C)NC(=O)[C@@H](NC(=O)[C@H](CCC(=O)O)NCCc1ccc(Cl)c(Cl)c1)[C@@H](C)O)C(=O)O | half-life [4]: 1.38 h; inhibition (Disks large homolog 4 [5]): Dose-dependent effect
12 | – | 32 | – | CN[C@@H](CCC(=O)O)C(=S)N[C@H](C(=O)N[C@@H](C)C(=O)N[C@H](C(=O)O)C(C)C)[C@@H](C)O | half-life [4]: > 91.7 h
13 | – | – | – | CC(C)[C@H](NC(=O)[C@H](CC(=O)O)NC(=O)[C@@H](NC(=O)[C@H](CCC(N)=O)NCCC1CCCCC1)[C@@H](C)O)C(=O)O | Ki (Disks large homolog 4 [1]): Not Active
14 | 9.4 | 1.2 | – | CC(C)[C@H](NC(=O)[C@H](C)NC(=O)[C@@H](NC(=O)[C@H](CCC(=O)O)NCCC1CCCCCC1)[C@@H](C)O)C(=O)O | –
15 | – | 9.65 | – | CN[C@@H](CCC(=O)O)C(=O)N[C@H](C(=O)N[C@@H](C)C(=O)N[C@H](C(=O)O)C(C)C)[C@@H](C)O | half-life [4]: 1.88 h
16 | 44 | 4.2 | – | CC(C)[C@H](NC(=O)[C@H](C)NC(=O)[C@@H](NC(=O)[C@H](CCC(=O)O)NCCCc1ccc(F)c(F)c1F)[C@@H](C)O)C(=O)O | –
17 | – | – | – | CC(C)[C@H](NC(=O)[C@H](CC(=O)O)NC(=O)[C@@H](NC(=O)[C@@H](N)CCC(N)=O)[C@@H](C)O)C(=O)O | Ki (Disks large homolog 4 [1]): Not Active

Row | Ki (Disks large homolog 4 [1]; read-out: Ki) [µM] | Ki (Disks large homolog 4 [2]) [µM] | inhibition (Disks large homolog 4 [3]) | Molecule | other results
18 | 51 | 16 | – | CC(C)[C@H](NC(=O)[C@H](C)NC(=O)[C@@H](NC(=O)[C@H](CCC(=O)O)NCCc1ccc2ccc3cccc4ccc1c2c34)[C@@H](C)O)C(=O)O | –
19 | 280 | 56 | – | CC(C)[C@H](NC(=O)[C@H](C)NC(=O)[C@@H](NC(=O)[C@H](C)NCCc1ccc2ccccc2c1)[C@@H](C)O)C(=O)O | –
20 | 14 | 1.5 | – | CC(C)[C@H](NC(=O)[C@H](C)NC(=O)[C@@H](NC(=O)[C@H](CCC(=O)O)NCCC1CC2CCC1C2)[C@@H](C)O)C(=O)O (some centres undefined) | –
21 | – | – | inactive | CC(C)[C@H](NC(=O)[C@H](C)NC(=O)[C@@H](NC(=O)[C@@H](N)CCC(=O)O)[C@@H](C)O)C(=O)O | –
22 | 16 | 1.4 | – | CC(C)[C@H](NC(=O)[C@H](C)NC(=O)[C@@H](NC(=O)[C@H](CCC(=O)O)NCC1CCCCCC1)[C@@H](C)O)C(=O)O | –
23 | – | – | – | H-RRRRRRRRKLSSIESDV-OH | inhibition (Disks large homolog 4 [6]): Active
24 | 6.7 | 2.1 | – | CC(C)[C@H](NC(=O)[C@H](C)NC(=O)[C@@H](NC(=O)[C@H](CCC(=O)O)NCC12CC3CC(CC(C3)C1)C2)[C@@H](C)O)C(=O)O | –
25 | 130 | 1.2 | inactive | CC(C)[C@H](NC(=O)[C@H](CC(=O)O)NC(=O)[C@@H](NC(=O)[C@H](CCC(=O)O)NCCc1ccc(Cl)c(Cl)c1)[C@@H](C)O)C(=O)O | –
26 | 8.3 | 1 | Active | CC(C)[C@H](NC(=S)[C@H](C)NC(=O)[C@@H](NC(=O)[C@H](CCC(=O)O)NCCc1ccc(Cl)c(Cl)c1)[C@@H](C)O)C(=O)O | half-life [4]: > 117 h; inhibition (Disks large homolog 4 [5]): Dose-dependent effect
27 | 210 | 1.8 | inactive | CC(C)[C@H](NC(=O)[C@H](CC(=O)O)NC(=O)[C@@H](NC(=O)[C@H](CCC(=O)O)NCCc1ccc2ccccc2c1)[C@@H](C)O)C(=O)O | –
28 | 8.8 | 1.8 | – | CC(C)[C@H](NC(=O)[C@H](C)NC(=O)[C@@H](NC(=O)[C@H](CCC(=O)O)NCCc1ccc(F)c(F)c1F)[C@@H](C)O)C(=O)O | –
29 | 11 | 1.1 | Active | CC(C)[C@H](NC(=S)[C@H](C)NC(=O)[C@@H](NC(=O)[C@H](CCC(=O)O)NCCc1ccc2ccccc2c1)[C@@H](C)O)C(=O)O | half-life [4]: > 117 h; inhibition (Disks large homolog 4 [5]): Dose-dependent effect
30 | 64 | 13 | – | CC(C)[C@H](NC(=O)[C@H](C)NC(=O)[C@@H](NC(=O)[C@H](C)NCCc1ccc(Cl)c(Cl)c1)[C@@H](C)O)C(=O)O | –
31 | – | – | – | C[C@H](NC(=O)[C@H](C)NC(=O)[C@H](C)NC(=O)[C@H](CCC(=O)O)NCCCc1ccc(Cl)c(Cl)c1)C(=O)O | inhibition (Disks large homolog 4 [5]): inactive
32 | > 400 | – | inactive | CC(C)[C@H](NC(=O)[C@H](C)NC(=O)[C@@H](NC(=O)[C@H](C)N)[C@@H](C)O)C(=O)O (H-ATAV-OH) | –
33 | 11 | 0.63 | Active | CC(C)[C@H](NC(=S)[C@H](C)NC(=O)[C@@H](NC(=O)[C@H](CCC(=O)O)NCCC1CCCCC1)[C@@H](C)O)C(=O)O | half-life [4]: > 117 h; inhibition (Disks large homolog 4 [5]): Active
34 | 20 | 1.3 | – | CC(C)[C@H](NC(=O)[C@H](C)NC(=O)[C@@H](NC(=O)[C@H](CCC(=O)O)NCC1CC2CCC1C2)[C@@H](C)O)C(=O)O (some centres undefined) | –

Row | Molecule | Ki (Disks large homolog 4 [1]; read-out: Ki) [µM] | Ki (Disks large homolog 4 [2]) [µM] | inhibition (Disks large homolog 4 [3]) | other results
35 | CC(C)[C@H](NC(=O)[C@H](C)NC(=O)[C@@H](NC(=O)[C@H](CCC(=O)O)NCCc1ccc2ccccc2c1)[C@@H](C)O)C(=O)O | – | – | Active | half-life [4]: 1.53 h; inhibition (Disks large homolog 4 [5]): Dose-dependent effect
36 | CC(C)[C@H](NC(=O)[C@H](CC(=O)O)NC(=O)[C@@H](NC(=O)[C@@H](N)CCC(=O)O)[C@@H](C)O)C(=O)O (H-ETDV-OH) | – | – | inactive | –
